Reference: the kinase profiling compilation of Christmann-Franck et al. (2016)

How the values were obtained:
Assay in all cases: KINOMEscan competition binding
Conditions in all cases: compound 10.0 µM
ACVR2A (human) = ACVR2A (human) (UniProt P27037)
ACVRL1 (human) = ACVRL1 (human) (UniProt P37023)
AKT1 (human) = AKT1 (human) (UniProt P31749)
BRSK2 (human) = BRSK2 (human) (UniProt Q8IWQ3)
CDC42BPG (human) = CDC42BPG (human) (UniProt Q6DT37)
CSK (human) = CSK (human) (UniProt P41240)
ERBB4 (human) = ERBB4 (human) (UniProt Q15303)
FGR (human) = FGR (human) (UniProt P09769)
Chain of FGR (human) (P09769 whole entry, looked up): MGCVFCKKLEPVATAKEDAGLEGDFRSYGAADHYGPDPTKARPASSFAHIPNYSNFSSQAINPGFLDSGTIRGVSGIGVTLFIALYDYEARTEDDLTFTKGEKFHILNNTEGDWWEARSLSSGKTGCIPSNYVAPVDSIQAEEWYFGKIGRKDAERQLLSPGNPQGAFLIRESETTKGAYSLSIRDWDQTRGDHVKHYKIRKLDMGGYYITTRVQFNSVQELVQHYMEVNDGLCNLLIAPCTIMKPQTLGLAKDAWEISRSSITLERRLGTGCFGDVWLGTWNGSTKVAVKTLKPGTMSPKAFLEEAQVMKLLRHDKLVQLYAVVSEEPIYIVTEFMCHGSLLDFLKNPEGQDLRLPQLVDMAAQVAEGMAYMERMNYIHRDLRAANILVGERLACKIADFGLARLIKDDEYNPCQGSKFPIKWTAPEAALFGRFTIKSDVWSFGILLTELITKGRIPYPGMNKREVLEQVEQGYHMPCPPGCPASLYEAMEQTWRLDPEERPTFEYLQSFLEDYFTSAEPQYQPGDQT

IGF1R (human) = IGF1R (human) (UniProt P08069)
Chain of IGF1R (human) (P08069 whole entry, looked up): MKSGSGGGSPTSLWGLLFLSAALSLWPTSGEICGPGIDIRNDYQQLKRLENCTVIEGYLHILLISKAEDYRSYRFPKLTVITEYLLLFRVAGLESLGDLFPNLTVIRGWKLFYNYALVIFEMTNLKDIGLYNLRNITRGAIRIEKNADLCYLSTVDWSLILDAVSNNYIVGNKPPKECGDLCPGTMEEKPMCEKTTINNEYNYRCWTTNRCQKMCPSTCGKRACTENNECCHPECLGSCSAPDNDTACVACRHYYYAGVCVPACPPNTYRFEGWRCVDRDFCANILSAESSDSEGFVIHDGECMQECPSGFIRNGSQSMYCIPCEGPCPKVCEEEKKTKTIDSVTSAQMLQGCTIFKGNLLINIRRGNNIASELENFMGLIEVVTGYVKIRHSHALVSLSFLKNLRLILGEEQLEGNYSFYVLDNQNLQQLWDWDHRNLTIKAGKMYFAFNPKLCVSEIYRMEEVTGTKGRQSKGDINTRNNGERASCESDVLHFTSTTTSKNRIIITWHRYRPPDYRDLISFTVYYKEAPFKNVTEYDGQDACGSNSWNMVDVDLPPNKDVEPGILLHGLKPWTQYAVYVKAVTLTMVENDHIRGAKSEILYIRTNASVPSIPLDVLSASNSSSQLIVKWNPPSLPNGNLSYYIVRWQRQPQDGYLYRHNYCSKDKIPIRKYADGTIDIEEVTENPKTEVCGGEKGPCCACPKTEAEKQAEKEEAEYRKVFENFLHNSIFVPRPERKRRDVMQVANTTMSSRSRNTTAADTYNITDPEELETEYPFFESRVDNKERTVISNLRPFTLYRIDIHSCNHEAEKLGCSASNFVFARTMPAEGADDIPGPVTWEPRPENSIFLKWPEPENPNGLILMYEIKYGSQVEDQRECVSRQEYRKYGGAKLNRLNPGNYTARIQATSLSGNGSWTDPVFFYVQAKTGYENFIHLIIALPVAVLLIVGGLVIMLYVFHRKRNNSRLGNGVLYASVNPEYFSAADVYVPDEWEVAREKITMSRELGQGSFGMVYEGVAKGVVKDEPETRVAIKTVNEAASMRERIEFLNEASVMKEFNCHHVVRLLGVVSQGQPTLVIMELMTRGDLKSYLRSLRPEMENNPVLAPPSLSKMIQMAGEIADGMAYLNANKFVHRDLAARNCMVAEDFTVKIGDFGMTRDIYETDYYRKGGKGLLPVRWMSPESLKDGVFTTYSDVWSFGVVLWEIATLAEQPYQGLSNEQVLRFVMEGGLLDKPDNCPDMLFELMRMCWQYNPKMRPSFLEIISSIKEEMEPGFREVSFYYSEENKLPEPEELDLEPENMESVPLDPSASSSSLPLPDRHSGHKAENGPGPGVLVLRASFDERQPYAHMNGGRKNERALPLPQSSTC

IKBKE (human) = IKBKE (human) (UniProt Q14164)
[1] = biological target: JAK1 JH2 pseudokinase (human) (UniProt P23458)
Chain of JAK1 JH2 pseudokinase (human) (P23458 whole entry, looked up): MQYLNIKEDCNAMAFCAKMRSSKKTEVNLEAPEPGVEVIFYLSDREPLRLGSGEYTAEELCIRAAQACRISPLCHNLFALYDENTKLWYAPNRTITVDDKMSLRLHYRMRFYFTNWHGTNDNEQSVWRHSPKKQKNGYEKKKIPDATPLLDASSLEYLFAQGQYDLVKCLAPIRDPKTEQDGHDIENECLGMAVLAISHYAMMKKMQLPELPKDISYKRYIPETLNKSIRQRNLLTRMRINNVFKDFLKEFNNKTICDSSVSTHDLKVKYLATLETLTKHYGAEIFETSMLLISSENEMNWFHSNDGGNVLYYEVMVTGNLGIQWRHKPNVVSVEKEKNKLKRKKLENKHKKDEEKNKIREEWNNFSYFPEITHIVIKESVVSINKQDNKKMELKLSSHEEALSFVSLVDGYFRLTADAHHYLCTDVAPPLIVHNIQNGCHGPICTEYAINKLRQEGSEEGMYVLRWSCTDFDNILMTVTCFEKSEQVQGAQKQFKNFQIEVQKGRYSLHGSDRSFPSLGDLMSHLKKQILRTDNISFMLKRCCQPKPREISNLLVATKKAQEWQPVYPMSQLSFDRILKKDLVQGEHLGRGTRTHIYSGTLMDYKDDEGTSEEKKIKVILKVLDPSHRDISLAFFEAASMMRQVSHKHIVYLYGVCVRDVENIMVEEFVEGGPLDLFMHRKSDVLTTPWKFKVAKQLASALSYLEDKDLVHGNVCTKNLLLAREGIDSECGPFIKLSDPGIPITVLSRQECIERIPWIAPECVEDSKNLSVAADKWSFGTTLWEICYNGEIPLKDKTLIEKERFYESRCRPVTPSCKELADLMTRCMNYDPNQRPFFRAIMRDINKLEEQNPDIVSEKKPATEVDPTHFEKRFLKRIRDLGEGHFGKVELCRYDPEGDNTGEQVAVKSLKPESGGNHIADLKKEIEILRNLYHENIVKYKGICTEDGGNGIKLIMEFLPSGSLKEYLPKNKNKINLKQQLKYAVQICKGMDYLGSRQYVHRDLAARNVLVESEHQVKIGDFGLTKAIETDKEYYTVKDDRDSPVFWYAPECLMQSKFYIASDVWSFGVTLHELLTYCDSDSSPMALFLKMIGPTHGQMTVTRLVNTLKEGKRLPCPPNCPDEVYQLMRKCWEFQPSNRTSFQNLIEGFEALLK

[2] = biological target: JAK2 JH1 catalytic (human) (UniProt O60674)
[3] = biological target: JAK3 JH1 catalytic (human) (UniProt P52333)
MAP2K4 (human) = MAP2K4 (human) (UniProt P45985)
MAPK15 (human) = MAPK15 (human) (UniProt Q8TD08)
Chain of MAPK15 (human) (Q8TD08 whole entry, looked up): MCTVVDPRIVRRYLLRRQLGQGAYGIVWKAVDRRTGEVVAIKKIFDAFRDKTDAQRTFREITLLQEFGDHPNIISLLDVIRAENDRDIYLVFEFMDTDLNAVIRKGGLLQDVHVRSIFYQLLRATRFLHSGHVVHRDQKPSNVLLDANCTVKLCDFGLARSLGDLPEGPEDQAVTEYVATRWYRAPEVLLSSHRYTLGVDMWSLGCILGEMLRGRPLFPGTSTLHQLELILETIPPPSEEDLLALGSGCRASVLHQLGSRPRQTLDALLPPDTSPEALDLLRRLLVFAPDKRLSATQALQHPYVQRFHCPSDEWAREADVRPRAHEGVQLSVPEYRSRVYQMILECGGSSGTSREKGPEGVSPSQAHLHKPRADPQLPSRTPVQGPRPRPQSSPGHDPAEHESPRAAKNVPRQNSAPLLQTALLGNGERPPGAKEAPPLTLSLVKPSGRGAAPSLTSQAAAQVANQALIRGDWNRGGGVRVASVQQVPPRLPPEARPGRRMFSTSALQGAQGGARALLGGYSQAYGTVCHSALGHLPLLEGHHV

MAPK6 (human) = MAPK6 (human) (UniProt Q16659)
Chain of MAPK6 (human) (Q16659 whole entry, looked up): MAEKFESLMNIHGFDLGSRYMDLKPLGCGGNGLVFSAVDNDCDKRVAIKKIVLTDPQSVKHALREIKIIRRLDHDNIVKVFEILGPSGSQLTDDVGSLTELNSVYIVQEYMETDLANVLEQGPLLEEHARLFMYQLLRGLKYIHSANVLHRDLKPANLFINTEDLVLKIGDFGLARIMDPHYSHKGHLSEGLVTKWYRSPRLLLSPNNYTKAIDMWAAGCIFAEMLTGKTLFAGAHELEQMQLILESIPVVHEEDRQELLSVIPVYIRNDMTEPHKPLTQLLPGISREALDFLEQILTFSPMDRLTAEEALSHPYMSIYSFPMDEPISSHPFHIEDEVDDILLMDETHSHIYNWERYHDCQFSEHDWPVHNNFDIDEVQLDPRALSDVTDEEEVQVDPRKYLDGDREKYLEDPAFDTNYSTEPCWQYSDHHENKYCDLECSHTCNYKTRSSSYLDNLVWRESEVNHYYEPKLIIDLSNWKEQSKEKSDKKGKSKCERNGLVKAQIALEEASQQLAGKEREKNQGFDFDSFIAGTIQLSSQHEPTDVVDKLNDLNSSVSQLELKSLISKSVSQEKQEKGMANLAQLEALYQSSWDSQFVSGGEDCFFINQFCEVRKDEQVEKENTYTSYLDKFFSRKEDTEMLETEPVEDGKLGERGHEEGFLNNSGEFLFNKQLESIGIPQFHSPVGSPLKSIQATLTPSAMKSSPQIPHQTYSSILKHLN

MELK (human) = MELK (human) (UniProt Q14680)
MST4 (human) = MST4 (human) (UniProt Q9P289)
NEK6 (human) = NEK6 (human) (UniProt Q9HC98)
NEK7 (human) = NEK7 (human) (UniProt Q8TDX7)
Chain of NEK7 (human) (Q8TDX7 whole entry, looked up): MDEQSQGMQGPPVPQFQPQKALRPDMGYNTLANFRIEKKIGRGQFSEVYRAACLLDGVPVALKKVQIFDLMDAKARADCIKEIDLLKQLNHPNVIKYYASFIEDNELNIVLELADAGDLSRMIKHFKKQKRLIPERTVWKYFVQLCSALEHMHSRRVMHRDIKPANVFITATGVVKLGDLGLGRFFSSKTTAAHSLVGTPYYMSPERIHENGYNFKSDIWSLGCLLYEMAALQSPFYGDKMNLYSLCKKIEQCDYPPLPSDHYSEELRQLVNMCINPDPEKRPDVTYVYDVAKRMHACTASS

NUAK1 (human) = NUAK1 (human) (UniProt O60285)
PAK7 (human) = PAK7 (human) (UniProt Q9P286)
PDGFRA (human) = PDGFRA (human) (UniProt P16234)
PHKG1 (human) = PHKG1 (human) (UniProt Q16816)
Chain of PHKG1 (human) (Q16816 whole entry, looked up): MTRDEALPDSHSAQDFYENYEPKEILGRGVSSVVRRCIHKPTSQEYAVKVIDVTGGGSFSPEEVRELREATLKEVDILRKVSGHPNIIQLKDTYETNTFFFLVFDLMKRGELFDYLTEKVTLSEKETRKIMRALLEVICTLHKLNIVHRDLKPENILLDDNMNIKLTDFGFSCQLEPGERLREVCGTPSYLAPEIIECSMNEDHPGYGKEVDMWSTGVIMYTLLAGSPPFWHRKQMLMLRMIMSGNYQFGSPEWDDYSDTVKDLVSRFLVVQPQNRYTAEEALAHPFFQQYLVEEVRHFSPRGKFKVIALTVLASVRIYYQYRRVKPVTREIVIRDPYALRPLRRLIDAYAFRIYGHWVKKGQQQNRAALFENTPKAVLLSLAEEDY

PIK3C2B (human) = PIK3C2B (human) (UniProt O00750)
PIK3CB (human) = PIK3CB (human) (UniProt P42338)
PRKCD (human) = PRKCD (human) (UniProt Q05655)
PRKCQ (human) = PRKCQ (human) (UniProt Q04759)
PRKG2 (human) = PRKG2 (human) (UniProt Q13237)
RAF1 (human) = RAF1 (human) (UniProt P04049)
RIPK2 (human) = RIPK2 (human) (UniProt O43353)
STK36 (human) = STK36 (human) (UniProt Q9NRP7)
TEK (human) = TEK (human) (UniProt Q02763)
TLK1 (human) = TLK1 (human) (UniProt Q9UKI8)
TNIK (human) = TNIK (human) (UniProt Q9UKE5)
WEE1 (human) = WEE1 (human) (UniProt P30291)
ZAP70 (human) = ZAP70 (human) (UniProt P43403)
INSR (human) = INSR (human) (UniProt P06213)
STK3 (human) = STK3 (human) (UniProt Q13188)
NTRK1 (human) = NTRK1 (human) (UniProt P04629)

Structure (SMILES)	kinase still bound, per cent of control (ACVR2A (human)) [%]	kinase still bound, per cent of control (ACVRL1 (human)) [%]	kinase still bound, per cent of control (AKT1 (human)) [%]	kinase still bound, per cent of control (BRSK2 (human)) [%]	kinase still bound, per cent of control (CDC42BPG (human)) [%]	kinase still bound, per cent of control (CSK (human)) [%]	kinase still bound, per cent of control (ERBB4 (human)) [%]	kinase still bound, per cent of control (FGR (human)) [%]	kinase still bound, per cent of control (IGF1R (human)) [%]	kinase still bound, per cent of control (IKBKE (human)) [%]	kinase still bound, per cent of control [1] [%]	kinase still bound, per cent of control [2] [%]	kinase still bound, per cent of control (MAP2K4 (human)) [%]	kinase still bound, per cent of control (MAPK15 (human)) [%]	kinase still bound, per cent of control (MAPK6 (human)) [%]	kinase still bound, per cent of control (MELK (human)) [%]	kinase still bound, per cent of control (MST4 (human)) [%]	kinase still bound, per cent of control (NEK6 (human)) [%]	kinase still bound, per cent of control (NEK7 (human)) [%]	kinase still bound, per cent of control (NUAK1 (human)) [%]	also measured
CC[C@@H]1C(=O)N(C)c2cnc(Nc3ccc(C(=O)NC4CCN(C)CC4)cc3OC)nc2N1C1CCCC1	100	100	100	100	100	100	100	100	100	100	100	100	100	100	100	29	100	100	100	100	kinase still bound, per cent of control [3]: 100%; kinase still bound, per cent of control (PAK7 (human)): 100%; kinase still bound, per cent of control (PDGFRA (human)): 100%; kinase still bound, per cent of control (PHKG1 (human)): 100%; kinase still bound, per cent of control (PIK3C2B (human)): 100%; kinase still bound, per cent of control (PIK3CB (human)): 100%; kinase still bound, per cent of control (PRKCD (human)): 100%; kinase still bound, per cent of control (PRKCQ (human)): 100%; kinase still bound, per cent of control (PRKG2 (human)): 100%; kinase still bound, per cent of control (RAF1 (human)): 100%; kinase still bound, per cent of control (RIPK2 (human)): 100%; kinase still bound, per cent of control (STK36 (human)): 100%; kinase still bound, per cent of control (TEK (human)): 100%; kinase still bound, per cent of control (TLK1 (human)): 100%; kinase still bound, per cent of control (TNIK (human)): 100%; kinase still bound, per cent of control (WEE1 (human)): 100%; kinase still bound, per cent of control (ZAP70 (human)): 100%
Cn1c(=O)n(-c2ccc(C(C)(C)C#N)cc2)c2c3cc(-c4cnc5ccccc5c4)ccc3ncc21	100	100	100	100	100	100	100	100	100	100	100	20	100	100	100	100	100	100	100	30	kinase still bound, per cent of control (INSR (human)): 100%; kinase still bound, per cent of control [3]: 100%; kinase still bound, per cent of control (PAK7 (human)): 100%; kinase still bound, per cent of control (PDGFRA (human)): 100%; kinase still bound, per cent of control (PHKG1 (human)): 100%; kinase still bound, per cent of control (PIK3C2B (human)): 2.8%; kinase still bound, per cent of control (PIK3CB (human)): 22%; kinase still bound, per cent of control (PRKCD (human)): 100%; kinase still bound, per cent of control (PRKCQ (human)): 100%; kinase still bound, per cent of control (PRKG2 (human)): 100%; kinase still bound, per cent of control (RAF1 (human)): 100%; kinase still bound, per cent of control (RIPK2 (human)): 100%; kinase still bound, per cent of control (STK3 (human)): 100%; kinase still bound, per cent of control (STK36 (human)): 100%; kinase still bound, per cent of control (TEK (human)): 100%; kinase still bound, per cent of control (TLK1 (human)): 100%; kinase still bound, per cent of control (TNIK (human)): 100%; kinase still bound, per cent of control (WEE1 (human)): 100%; kinase still bound, per cent of control (ZAP70 (human)): 100%
O=C(O)c1ccc(Nc2ncc3c(n2)-c2ccc(Cl)cc2C(c2c(F)cccc2F)=NC3)cc1	95	64	100	100	92	15	52	7.6	73	68	80	100	100	90	92	81	100	100	100	67	kinase still bound, per cent of control (INSR (human)): 59%; kinase still bound, per cent of control (NTRK1 (human)): 35%; kinase still bound, per cent of control (PAK7 (human)): 93%; kinase still bound, per cent of control (PDGFRA (human)): 56%; kinase still bound, per cent of control (PHKG1 (human)): 100%; kinase still bound, per cent of control (PIK3C2B (human)): 93%; kinase still bound, per cent of control (PIK3CB (human)): 100%; kinase still bound, per cent of control (PRKCD (human)): 100%; kinase still bound, per cent of control (PRKCQ (human)): 98%; kinase still bound, per cent of control (PRKG2 (human)): 96%; kinase still bound, per cent of control (RIPK2 (human)): 97%; kinase still bound, per cent of control (STK3 (human)): 48%; kinase still bound, per cent of control (STK36 (human)): 100%; kinase still bound, per cent of control (TEK (human)): 3%; kinase still bound, per cent of control (TLK1 (human)): 77%; kinase still bound, per cent of control (TNIK (human)): 61%; kinase still bound, per cent of control (WEE1 (human)): 100%; kinase still bound, per cent of control (ZAP70 (human)): 100%
